Key:
cardiac I/R injury = assay: Mouse model of cardiac I/R injury; type: in vivo
Experimental: The beneficial effects of BRAP were further investigated using a mouse model of cardiac I/R injury in vivo. After 45 minutes of ischemia, BRAP (1.5 mg/kg) or vehicle was administered i.p. at the time of reperfusion, and then daily (1.5 mg/kg/day) for 2 weeks. For cardiac functional analysis, pressure-volume (PV) loop measurement and echocardiography were performed at 2 weeks after I/R surgery.
Studies were then performed to determine whether the benefits of BRAP after I/R were associated with attenuation of oxidative stress, inflammation, and apoptosis. These mechanistic analyses were performed in heart tissues 24 hours after cardiac I/R injury. […] BRAP administration decreased TNF-α and MCP-1 expressions compared with vehicle-treated mice.
Cardiac I/R surgery was performed in 12 week-old male mice as described in Choudhury, et al., 2011, Basic Res Cardiol 106:397. Briefly, mice were anaesthetized and placed on a rodent ventilator (model 687, Harvard Respirator). After thoracotomy, the left anterior descending artery (LAD) artery was identified and ligated with a 7-0 silk suture tied around a specialized 30 G-catheter. The animal remained under anesthesia and ventilation for 45 min of ischemia, after which reperfusion was achieved by cutting the suture and re-establishing arterial perfusion. Sham operated mice underwent the same procedure without LAD occlusion.
Cardiac function was evaluated using the pressure-volume loop measurement and echocardiography 2 weeks after I/R as described in Lee, et al., 2013, Sci Rep 3:2233. Pressure-volume parameters were measured after isoflurane (2%) inhalant anesthesia using a 1.4 Fr. micro-tip pressure-volume catheter (Scisense Inc, Ontario, Canada) inserted into the right common carotid artery. The catheter was gently advanced into the left ventricle to obtain LV hemodynamic parameters. Data was recorded using a Powerlab system (ADInstruments, Colorado Springs, Colo.). Beat by beat pressure-volume parameters including heart rate (HR), stroke volume (SV), stroke work (SW) and cardiac output (CO) were measured and analyzed using CardioSoft Pro software (CardioSoft, Houston, Tex.). Transthoracic echocardiography was performed using a Vevo2100 ultra-high frequency small animal imaging system with MS400 transducer (18-38 MHz) (Visualsonics, Toronto, Canada).
For liver apoptosis assay, terminal deoxynucleotidyl transferase dUTP nick end labeling (TUNEL) staining was performed using a DeadEnd™ Fluorometric TUNEL kit (Promega, Madison, Wis.). Tissue sections were stained for nuclei (4′,6-diamidino-2-phenylindole (DAPI) staining) and apoptotic nuclei (TUNEL staining) and analyzed using a confocal laser scanning microscope. For heart tissues, TUNEL staining was performed using in situ cell death detection Kit, fluorescein (Roche Applied Science, Indianapolis, Ind.). To distinguish cardiomyocyte from non-cardiomyocyte nuclei, triple stain for nuclei (DAPI staining), apoptotic nuclei (TUNEL staining), and cardiomyocytes (α-Actinin staining) was used, and the stained sections were analyzed using confocal microscopy. A minimum of ˜10 high power fields with ˜2000 nuclei/field were counted for each sample.
The activity of caspase-3 was determined with colorimetric assay kit (R&D Systems, Minneapolis, Minn.) as described in Choudhury, et al., 2011, Basic Res Cardiol 106:397; Bae, et al., 2010, Am J Physiol Heart Circ Physiol 299:H1374. Briefly, protein samples were added to substrates of Acetyl-Asp-Glu-Val-Asp-p-nitroanilide. The enzyme-catalyzed release of p-nitroanilide was measured at 405 nm. For PARP activity assay, activity was measured at 450 nm by incorporation of biotinylated poly (ADP-ribose) onto histone-coated proteins in plate using colorimetric assay kit (R&D Systems, Minneapolis, Minn., USA).
Heart tissues were collected for molecular analyses were performed in Bae, et al., 2010, Am J Physiol Heart Circ Physiol 299:H1374. […]

[1] = Cumulative toxicity, daily administration for 7 days in mice; type: in vivo, mouse; conditions: 1.5 mg/kg/day intraperitoneal
Experimental: FIG. 7, comprising FIGS. 7A-7C, is a set of images and bar graphs illustrating the safety profile of BRAP (1.5 mg/kg/day) after daily intraperitoneal administration for 7 days. FIGS. 7A-7B: Creatinine (FIG. 7A) and ALT (FIG. 7B) levels 7 days after daily BRAP administration. FIG. 7C: Representative H/E stained tissue sections of different organs 7 days after daily BRAP administration (n=4/group).
To determine the potential cumulative toxic effects of BRAP, BRAP (1.5 mg/kg/day) was administered daily for 7 days in mice.

iNOS = iNOS level in LPS-stimulated macrophage cells; type: cell-based, mouse
Experimental: FIG. 4, comprising FIGS. 4A-4F, is a set of graphs, bar graphs and images illustrating anti-oxidant and anti-inflammatory effects of BRAP in vitro. […] The generation of ROS was monitored by flow cytometry as an indicator of DCF fluorescence. Fluorescence was analyzed in 10,000 cells with excitation at 480 nm and emission at 530 nm. FIG. 4C: Protective effect of BRAP on H2O2— stimulated adult rat cardiomyocytes. V=vehicle, *<0.05 vs. V+H2O2 (n=4). […] (n=4/group).
The anti-inflammatory effects of BRAP on LPS-stimulated cells were investigated by measuring the level of inflammatory cytokines such as TNF-α (tumor necrosis factor-alpha) and iNOS (inducible nitric oxide synthases) (FIGS. 4E-4F). […] These observations indicate that BRAP, as well as BRAP-encapsulated PLGA microparticles, is able to scavenge overproduced H2O2 and serve as a H2O2-activable anti-oxidant. Further, the enhanced anti-oxidant activity of BRAP is derived from the combined effects of H2O2-scavenging boronic esters and HBA generation after H2O2-mediated boronate oxidation.

[2] = Activation of BRAP by H2O2, UV spectroscopy (absorbance at 273 nm); type: physicochemical; conditions: after 90 minutes of treatment with H2O2
Experimental: The activation of BRAP by H2O2 was also studied using UV spectroscopy. BRAP was mixed with H2O2 and the change in UV absorbance was monitored over time.
BRAP was dissolved in PBS (pH 7.4) at a concentration of 1 mM and was incubated at 37° C. in the presence of 100 μM of H2O2. The concentration of HBA generated from BRAP was measured using a UV spectrometer at appropriate time points.

[3] = 1.5 mg/kg i.p. at reperfusion then daily for 2 weeks
[4] = 24 hours after I/R, compared with vehicle-treated mice

Structure (SMILES): CC1(CO)COB(c2ccc(CO)cc2)OC1 [BRAP, (4-(5-(hydroxymethyl)-5-methyl-1,3,2-dioxaborinan-2-yl)phenyl)methanol]
- I/R-induced cardiac dysfunction by PV loop analysis (CO, SW, EF) (cardiac I/R injury; [3]): significantly attenuated
- I/R-induced cardiac dysfunction by echocardiography (FS) (cardiac I/R injury; [3]): significantly attenuated
- TUNEL-positive cardiomyocytes (apoptosis) (cardiac I/R injury; 24 hours after I/R): effectively inhibited
- caspase-3 activation in heart (cardiac I/R injury; 24 hours after I/R): effectively reduced
- MCP-1 mRNA expression in heart (cardiac I/R injury; [4]): decreased
- TNF-α mRNA expression in heart (cardiac I/R injury; [4]): decreased
- DHE staining (ROS generation) in heart (cardiac I/R injury; heart tissue 24 hours after I/R): significantly decreased
- histology of different organs (H/E) [1]: no significant histological evidence of accumulated toxicity
- serum test for hepatic function (ALT) [1]: no significant abnormalities
- serum test for renal function (creatinine) [1]: no significant abnormalities
- iNOS level (iNOS): significantly suppressing
- change in UV absorbance (HBA generation) [2]: no further increase in UV absorbance
